According to US9604975B2, “Indolyl-pyridone derivatives having checkpoint kinase 1 inhibitory activity” (Vernalis (R&D) Ltd., priority 2009, dated 2017):

target: T1, CHK1 (Homo sapiens, UniProt O14757); assay: CHK1 Enzyme Assay (phosphorylation of Chktide peptide, 33P-ATP filter assay); format: biochemical; settings: 12.5 nM His-CHK1, 0.01 mM ATP, 40 minutes at 30° C.; read-out: CHK1 Enzyme Activity (IC50 range)
T1 construct: His; purchased Invitrogen
T1 sequence (O14757 1-476): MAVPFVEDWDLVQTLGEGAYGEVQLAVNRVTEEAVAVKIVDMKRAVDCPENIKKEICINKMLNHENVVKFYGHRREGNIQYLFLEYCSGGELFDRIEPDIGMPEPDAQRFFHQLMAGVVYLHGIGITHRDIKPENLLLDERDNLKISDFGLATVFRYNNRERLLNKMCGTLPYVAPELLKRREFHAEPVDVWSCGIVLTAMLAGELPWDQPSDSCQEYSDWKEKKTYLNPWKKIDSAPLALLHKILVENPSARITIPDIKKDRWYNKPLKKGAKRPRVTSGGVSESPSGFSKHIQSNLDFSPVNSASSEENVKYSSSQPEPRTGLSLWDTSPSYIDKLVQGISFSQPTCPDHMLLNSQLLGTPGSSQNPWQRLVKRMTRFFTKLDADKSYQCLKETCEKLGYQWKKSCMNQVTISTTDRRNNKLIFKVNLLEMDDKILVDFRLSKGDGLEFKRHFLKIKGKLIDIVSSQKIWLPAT
Outline: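 His-CHK1 (12.5 nM) phosphorylating 14.8 μM Chktide with 0.01 mM ATP plus 33P-γ-ATP, in 50 mM Hepes-NaOH pH 7.5 with 0.1 mg/mL BSA. Incubated with inhibitor for 40 min at 30 °C. Stopped with phosphoric acid; phosphopeptide captured on filter and counted by scintillation.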

`O=C(Nc1cnn(Cc2ccc(F)c(F)c2)c1)c1c[nH]c(=O)c(-c2cc3cc(CN4CCC(F)CC4)ccc3[nH]2)c1` [Example 97, 5-[5-(4-Fluoro-piperidin-1-ylmethyl)-1H-indol-2-yl]-6-oxo-1,6-dihydro-pyridine-3-carboxylic acid [1-(3,4-difluoro-benzyl)-1H-pyrazol-4-yl]-amide] and `O=C(Nc1cnn(Cc2ccc(F)c(F)c2)c1)c1c[nH]c(=O)c(-c2cc3cc(CN4CCC(O)CC4)ccc3[nH]2)c1` [Example 100, 5-[5-(4-Hydroxypiperidin-1-ylmethyl)-1H-indol-2yl]-6-oxo-1,6-dihydropyridine-3-carboxylic acid[1-(3,4-difluorobenzyl)-1H-pyrazol-4-yl]-amide] cannot be ordered by IC50: less than 100 nM for the first, less than 100 nM for the second.

`O=C(Nc1cnn(Cc2ccc(F)nc2)c1)c1c[nH]c(=O)c(-c2cc3ccccc3[nH]2)c1` [Example 110, 5-(1H-Indol-2-yl)-6-oxo-1,6-dihydro-pyridine-3-carboxylic acid [1-(6-fluoro-pyridin-3-ylmethyl)-1H-pyrazol-4-yl]-amide] and `Cc1ccc(Cn2cc(NC(=O)c3c[nH]c(=O)c(-c4cc5ccccc5[nH]4)c3)cn2)cc1F` [Example 14, 5-(1H-Indol-2-yl)-6-oxo-1,6-dihydro-pyridine-3-carboxylic acid [1-(3-fluoro-4-methyl-benzyl)-1H-pyrazol-4-yl]-amide] fall in the same range of IC50: 100 to 500 nM for the first, 100 to 500 nM for the second.

`CN1CCN(CCOc2ccc3[nH]c(-c4cc(NC(=O)c5cnn(Cc6ccccc6)c5)c[nH]c4=O)cc3c2)CC1` [Example 146, 1-Benzyl-1H-pyrazole-4-carboxylic acid (5-{5-[2-(4-methyl-piperazin-1-yl)-ethoxy]-1H-indol-2-yl}-6-oxo-1,6-dihydro-pyridin-3-yl)-amide] and `O=C(Nc1c[nH]c(=O)c(-c2cc3cc(OCCN4CCCC4)ccc3[nH]2)c1)c1cnn(Cc2ccccc2)c1` [Example 144, 1-Benzyl-1H-pyrazole-4carboxylic acid {6-oxo-5-[5-(2-pyrrolidin-1-yl-ethoxy)-1H-indol-2-yl]-1,6-dihydro-pyridin-3-yl}-amide] cannot be ordered by IC50: less than 100 nM for the first, less than 100 nM for the second.

`O=C(Nc1cnn(Cc2ccc(F)c(F)c2)c1)c1c[nH]c(=O)c(-c2cc3cc(CN4CCN(CCO)CC4)ccc3[nH]2)c1` [Example 105, 5-{5-[4-(2-Hydroxyethyl)-piperazin-1-ylmethyl]-1H-indol-2yl}-6-oxo-1,6-dihydropyridine-3-carboxylic acid[1-(3,4-difluorobenzyl)-1H-pyrazol-4-yl]-amide] and `O=C(Nc1c[nH]c(=O)c(-c2cc3cc(CN4CCN(CCO)CC4)ccc3[nH]2)c1)c1cnn(Cc2ccc(Cl)cc2)c1` [Example 66, 1-(4-Chloro-benzyl)-1H-pyrazole-4-carboxylic acid (5-{5-[4-(2-hydroxy-ethyl)-piperazin-1-ylmethyl]-1H-indol-2-yl}-6-oxo-1,6-dihydro-pyridin-3-yl)-amide] cannot be ordered by IC50: less than 100 nM for the first, less than 100 nM for the second.

`CCc1cccc(Cn2cc(C(=O)Nc3c[nH]c(=O)c(-c4cc5cc(OCCCN6CCCCC6)ccc5[nH]4)c3)cn2)c1` [Example 134, 1-(3-Ethyl-benzyl)-1H-pyrazole-4-carboxylic acid {6-oxo-5-[5-(3-piperidin-1-yl-propoxy)-1H-indol-2-yl]-1,6-dihydro-pyridin-3-yl}-amide] and `Cc1ccc(Cn2cc(C(=O)Nc3c[nH]c(=O)c(-c4cc5cc(OCCCN6CCCCC6)ccc5[nH]4)c3)cn2)cc1` [Example 119, 1-(4-Methyl-benzyl)-1H-pyrazole-4-carboxylic acid {6-oxo-5-[5-(3-piperidin-1-yl-propoxy)-1H-indol-2-yl]-1,6-dihydro-pyridin-3-yl}-amide] cannot be ordered by IC50: less than 100 nM for the first, less than 100 nM for the second.

First: CC(c1ccccc1)n1cc(C(=O)Nc2c[nH]c(=O)c(-c3cc4cc(CN5CCCCC5)ccc4[nH]3)c2)cn1 (centres unmarked) [Example 85, 1-(1-Phenyl-ethyl)-1H-pyrazole-4-carboxylic acid [6-oxo-5-(5-piperidin-1-ylmethyl-1H-indol-2-yl)-1,6-dihydro-pyridin-3-yl]-amide]
Second: C[C@@H](c1ccccc1)n1cc(C(=O)Nc2c[nH]c(=O)c(-c3cc4ccccc4[nH]3)c2)cn1 [Example 160, 1-((S)-1-Phenyl-ethyl)-1H-pyrazole-4-carboxylic acid [5-(1H-indol-2-yl)-6-oxo-1,6-dihydro-pyridin-3-yl]-amide]
The IC50 of the first is lower: less than 100 nM for the first, 100 to 500 nM for the second.

`Cc1ccc(Cn2cc(C(=O)Nc3c[nH]c(=O)c(-c4cc5cc(OCCN6CCN(C)CC6)ccc5[nH]4)c3)cn2)cc1` [Example 126, 1-(4-Methyl-benzyl)-1H-pyrazole-4-carboxylic acid (5-{5-[2-(4-methyl-piperazin-1-yl)-ethoxy]-1H-indol-2-yl}-6-oxo-1,6-dihydro-pyridin-3-yl)-amide] and `CN1CCN(c2ccc3[nH]c(-c4cc(NC(=O)c5cnn(Cc6ccc(F)cc6)c5)c[nH]c4=O)cc3c2)CC1` [Example 114, 1-(4-Fluoro-benzyl)-1H-pyrazole-4-carboxylic acid {5-[5-(4-methyl-piperazin-1-yl)-1H-indol-2-yl]-6-oxo-1,6-dihydro-pyridin-3-yl}-amide] cannot be ordered by IC50: less than 100 nM for the first, less than 100 nM for the second.

`CCN(CC)CCOc1ccc2[nH]c(-c3cc(NC(=O)c4cnn(Cc5ccc(C(C)C)cc5)c4)c[nH]c3=O)cc2c1` [Example 155, 1-(4-Isopropylbenzyl)-1H-pyrazole-4-carboxylic acid {5-[5-(2-diethylaminoethoxy)-1H-indol-2-yl)-6-oxo-1,6-dihydropyridin-3-yl}-amide] and `CCN(CC)CCCOc1ccc2[nH]c(-c3cc(NC(=O)c4cnn(Cc5ccc(C)cc5)c4)c[nH]c3=O)cc2c1` [Example 123, 1-(4-Methyl-benzyl)-1H-pyrazole-4-carboxylic acid {5-[5-(3-diethylamino-propoxy)-1H-indol-2-yl]-6-oxo-1,6-dihydro-pyridin-3-yl}-amide] cannot be ordered by IC50: less than 100 nM for the first, less than 100 nM for the second.

`CN(Cc1ccc2[nH]c(-c3cc(NC(=O)c4cnn(Cc5ccc(F)cc5)c4)c[nH]c3=O)cc2c1)C1CCCCC1` [Example 84] and `CC1CCN(Cc2ccc3[nH]c(-c4cc(NC(=O)c5cnn(Cc6ccc(F)cc6)c5)c[nH]c4=O)cc3c2)CC1` [Example 82, 1-(4-Fluoro-benzyl)-1H-pyrazole-4-carboxylic acid {5-[5-(4-methyl-piperidin-1-ylmethyl)-1H-indol-2-yl]-6-oxo-1,6-dihydro-pyridin-3-yl}-amide] cannot be ordered by IC50: less than 100 nM for the first, less than 100 nM for the second.

`CN(C)CCCOc1ccc2[nH]c(-c3cc(NC(=O)c4cnn(Cc5ccc(C(C)(C)C)cc5)c4)c[nH]c3=O)cc2c1` [Example 156, 1-(4-tert-butylbenzyl)-1H-pyrazole-4-carboxylic acid {5-[5-(3-dimethylaminopropoxy)-1H-indol-2-yl)-6-oxo-1,6-dihydropyridin-3-yl}-amide] and `CN(C)CCCOc1ccc2[nH]c(-c3cc(NC(=O)c4cnn(Cc5ccccc5)c4)c[nH]c3=O)cc2c1` [Example 145, 1-Benzyl-1H-pyrazole-4-carboxylic acid {5-[5-(3-dimethylamino-propoxy)-1H-indol-2-yl]-6oxo-1,6-dihydro-pyridin-3-yl}-amide] cannot be ordered by IC50: less than 100 nM for the first, less than 100 nM for the second.

Compared with `O=C(Nc1c[nH]c(=O)c(-c2cc3ccccc3[nH]2)c1)c1cnn(Cc2cccc(C(F)(F)F)c2)c1` [Example 23, 1-(3-Trifluoromethyl-benzyl)-1H-pyrazole-4-carboxylic acid [5-(1H-indol-2-yl)-6-oxo-1,6-dihydro-pyridin-3-yl]-amide], `Cc1ccc(Cn2cc(NC(=O)c3c[nH]c(=O)c(-c4cc5ccccc5[nH]4)c3)cn2)cc1` [Example 5, 5-(1H-Indol-2-yl)-6-oxo-1,6-dihydro-pyridine-3-carboxylic acid[1-(4-methyl-benzyl)-1H-pyrazol-4-yl]-amide] is higher in IC50: less than 100 nM for the first, 100 to 500 nM for the second.

`Cc1ccc(Cn2cc(C(=O)Nc3c[nH]c(=O)c(-c4cc5cc(CN6CCCC6)ccc5[nH]4)c3)cn2)cc1` [Example 41, 1-(4-Methyl-benzyl)-1H-pyrazole-4-carboxylic acid [6-oxo-5-(5-pyrrolidin-1-ylmethyl-1H-indol-2-yl)-1,6-dihydro-pyridin-3-yl]-amide] and `CC(C)(COc1ccc2[nH]c(-c3cc(NC(=O)c4cnn(Cc5ccccc5)c4)c[nH]c3=O)cc2c1)CN1CCOCC1` [Example 184, 1-Benzyl-1H-pyrazole-4-carboxylic acid {5-[5-(2,2-dimethyl-3-morpholin-4-yl-propoxy)-1H-indol-2-yl]-6-oxo-1,6-dihydro-pyridin-3-yl}-amide] cannot be ordered by IC50: less than 100 nM for the first, less than 100 nM for the second.

`CN(C)Cc1cccc2[nH]c(-c3cc(NC(=O)c4cnn(Cc5ccccc5)c4)c[nH]c3=O)cc12` [Example 106, 1-Benzyl-1H-pyrazole-4-carboxylic acid [5-(4-dimethylaminomethyl-1H-indol-2-yl)-6-oxo-1,6-dihydro-pyridin-3-yl]-amide] and `CN(C)CCOc1ccc2[nH]c(-c3cc(NC(=O)c4cnn(Cc5ccccc5)c4)c[nH]c3=O)cc2c1` [Example 142, 1-Benzyl-1H-pyrazole-4-carboxylic acid {5-[5-(2-dimethylamino-ethoxy)-1H-indol-2-yl]-6-oxo-1,6-dihydro-pyridin-3-yl}-amide] cannot be ordered by IC50: less than 100 nM for the first, less than 100 nM for the second.
